Assay [1] addresses T1, D59C MelBSt (Salmonella typhimurium, UniProt P30878, D59C).
T1 construct: Cys scanning mutagenesis for the full-length MelBSt; His10 (C); made in house; host or cells: E. coli DW2
Put plainly: biochemical. Type of assay: binding. The procedure: All ITC ligand-binding assays were performed with the TA Instruments (Nano-ITC device) at 25 °C. In a typical experiment, the titrand (MelBSt) in the ITC sample cell was titrated with the specified titrant (placed in the Syringe) by an incremental injection of 2-µL aliquots at an interval of 300 s at a constant stirring rate of 250 r.p.m. All samples were degassed using a TA Instruments Degassing Station (model 6326) for 15 min prior to the titration. Data processing was performed with the NanoAnalyze (version 3.6.0 software) provided with the ITC equipment. The normalized heat changes were subtracted from the heat of dilution elicited by last few injections, where no further binding occurred; the corrected heat changes were plotted against the molar ratio of titrant versus titrand. The values for association constant (Ka) value were determined by fitting the data with a one-site independent-binding model. At most cases, the binding stoichiometry (N) number was fixed to 1 since it is a known parameter, which can restrain the data fitting and achieve more accurate results. The dissociation constant Kd = 1/Ka.
Supplementary Figure 1. ITC measurements. ITC measurements were performed at 25 °C as described in Methods. (a) Binding thermography. For all tests, ligands and proteins are buffer- […]
(1 picture or pasted object on this page, not shown here) […]
matched. For melibiose binding measurements, a solution of 80 mM or 10 mM in the absence or presence of NaCl at 100 mM, was injected into the ITC sample cell containing the WT MelBSt at 80 μM without or with 100 mM NaCl, respectively. With the D59C mutant, […] was used. For α-NPG binding measurements, 0.5 mM or 0.4 mM solution was used to titrate the WT or D59C mutant at 50 μM in the absence or presence or 100 mM NaCl, respectively. For the Na+ or Li+ binding measurements, 5 mM or 2 mM solution was used to titrate WT MelBSt at 80 μM without or with 50 mM melibiose, respectively; 40 mM solutions was used to titrate the D59C mutant. (b) binding isotherm. Curve fit was carried out with a one-site independent-binding model included in the NanoAnalyze software (version 3.6.0).

The target in assay [2] is T1, D59C MelBSt. Put plainly: Trp→dansyl galactoside (D2G) FRET time trace and IC50 of D2G displacement (D59C). The format is binding. As to conditions: IC50 of galactoside displacement on bound D2G, α-NPG, 10 μM D2G. The procedure: Fig. 1 Functional characterizations. a [^3H] Melibiose transport time course with intact cells. […] Inset, melibiose fermentation assay. Transformants with DW2 strain were plated on MacConkey agar plates containing 30 mM melibiose as the sole carbohydrate source and pH sensor neutral red, and incubated at 37 °C for 16–18 h before imaging. Number of tests = 3, from different batch of cells or duplicate measurements from same batch of sample. b Ligand binding by Trp→dansyl galactoside (D^2G) FRET assay. Purified proteins at 1 μM concentration in 20 mM Tris-HCl, pH 7.5, 100 mM CholCl, 10% glycerol, and 0.03% UDM were subjected to steady-state fluorescence measurements as described in Methods. On the time-trace, 1.8 μL of 1 mM D^2G at 10 μM was added into 180 μL of protein solutions at 1-min point, followed by supplying 10 μL of 5 mM DDMB or 5 mM α-NPG to displace the bound D^2G. For testing Na^+ or Li^+ binding, they are added into the solution before displacement with the second sugar. The structure of DDMB or α-NPG is shown in a chair form, and the carbon positions are labeled. Glycosidic bonds are indicated by arrows. Both are α-galactosides containing a substituent at the anomeric carbon-1. The data were from duplicate measurements.
Steady-state fluorescence measurements were performed with an AMINCO-Bowman series 2 spectrometer with purified MelBSt at 1 μM in 20 mM Tris-HCl, pH 7.5, 100 mM CholCl, 10% glycerol, 0.03% UDM. Using an excitation wavelength at 290 nm, the emission intensity was recorded at 490 nm. On a time-trace, D^2G, NaCl or LiCl, then DDMB or α-NPG, were sequentially added into the protein solutions at a 1 min-interval. […] An identical volume of water was used for the control. The decrease in intensity after each addition of DDMB or α-NPG was corrected by the dilution effect and plotted as a function of the accumulated α-NPG concentrations or estimated DDMB concentrations. The 50% inhibitory concentration (IC50) was determined by fitting a hyperbolic function to the data (OriginPro 2020b). The final concentration of each detergent is estimated to be 234 μM, which is less than their CMC value for (DDMB, 295 μM).
Supplementary Figure 2. Determination of DDMB binding affinity to MelBSt. (a) Titration with DDMB or a-NPG. MelBSt in 20 mM Tris-HCl, pH 7.5, 100 mM CholCl, 10% glycerol, 0.03% UDM without (1) or with 100 mM NaCl (2) were added with D2G at 10 μM at 1-min time point as indicated by triangle symbols on the Trp®dansyl FRET time trace. Starting at the 2-min of time point, DDMB or a-NPG solution was supplemented consecutively at a 1-min interval into MelBSt solution till no change in fluorescence intensity reached as indicated in star symbols. DDM and UDM were used as negative controls. 1% DDM or UDM was titrated into the mixture, The […]
At 2-min time point, additions of galactosides were colored in pink, a-NPG in yellow, UDM in blue, DDM in light blue, water in gray traces, respectively. (b) IC50 determination. The intensity decrease at each titration were corrected by the dilution effect, and plotted as a function of the accumulated DDMB or α-NPG concentration. The 50% inhibitory concentration (IC50) was determined by fitting the data to a hyperbolic function (OriginPro 2020b). Results are presented in […]
(1 picture or pasted object on this page, not shown here)

Like-named read-outs stand apart in the source and are kept apart here.

T1 sequence (P30878 whole entry D59C): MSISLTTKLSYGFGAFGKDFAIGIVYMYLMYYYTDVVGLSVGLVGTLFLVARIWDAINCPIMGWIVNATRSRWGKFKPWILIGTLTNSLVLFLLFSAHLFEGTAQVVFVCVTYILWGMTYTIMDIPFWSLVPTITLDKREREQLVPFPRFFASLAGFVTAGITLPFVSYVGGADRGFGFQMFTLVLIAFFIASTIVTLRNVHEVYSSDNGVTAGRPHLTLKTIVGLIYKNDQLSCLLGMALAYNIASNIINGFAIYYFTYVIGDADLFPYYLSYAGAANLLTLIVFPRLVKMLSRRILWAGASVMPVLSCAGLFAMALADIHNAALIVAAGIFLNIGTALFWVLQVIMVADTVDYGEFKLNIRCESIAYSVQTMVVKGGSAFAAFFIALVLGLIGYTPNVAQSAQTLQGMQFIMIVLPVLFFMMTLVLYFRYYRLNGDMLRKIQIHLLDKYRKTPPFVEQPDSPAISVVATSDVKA

As a reminder, the Kd is the equilibrium constant for the complex coming apart. For the compound `OC[C@H]1O[C@H](OCC2O[C@@H](O)[C@H](O)[C@@H](O)[C@@H]2O)[C@H](O)[C@@H](O)[C@H]1O` (stereo partly drawn) [Melibiose], the equilibrium dissociation constant (Kd) came out at 4660 ± 100 µM on D59C MelBSt [1] (Apo, ITC 25 °C, read-out: Kd of substrate binding, Melibiose); 4960 ± 110 µM at D59C MelBSt [1] (Na+ (100 mM), ITC 25 °C, read-out: Kd of substrate binding, Melibiose); 6000 µM on D59C MelBSt [1] (read-out: Kd value for melibiose binding). In addition, at D59C MelBSt [1] (apo state, melibiose binding), the “Kd lower than that of WT” value is 2 fold.

In general, IC50 refers to the concentration that gives 50% inhibition. Low readings indicate higher potency, high ones lower potency. For the compound `O=[N+]([O-])c1ccc(OC2OC(CO)C(O)C(O)C2O)cc1` [α-NPG, 4-nitrophenyl-α-D-galactopyranoside], the Kd on D59C MelBSt [1] (Kd of substrate binding, α-NPG, Apo, ITC 25 °C) stood at 10.5 ± 1.34 µM; on D59C MelBSt [1] (Kd of substrate binding, α-NPG, Na+ (100 mM), ITC 25 °C) it was 11.97 ± 0.09 µM. In addition, the “increased affinity versus WT” value on D59C MelBSt [1] (apo D59C mutant) is “about 4 fold”. The half-inhibitory concentration (IC50) on D59C MelBSt [2] (Apo) came to 22.1 ± 5.75 µM; at D59C MelBSt [2] (Na+ (100 mM)) it was 21.3 ± 1.67 µM.

The values above are taken from paper PMC8329300, “X-ray crystallography reveals molecular recognition mechanism for sugar binding in a melibiose transporter MelB” (Communications Biology, 2021).
